How the values were obtained:
KATO III = test: MTS assay, KATO III cells; format: cell-based; conditions: Homo sapiens, 72 hours
Method: (§1) Cells were maintained at 37° C., 5% CO2 in DMEM media supplemented with 1% fetal bovine serum, penicillin/streptomycin and fungizone (Invitrogen). Cells were seeded into 96-well tissue culture plates at 3000 per well and cultured at 37° C. for 18 hours. Test compounds were dissolved and diluted to 300× in DMSO then diluted 1:40 in DMEM. Cells were incubated with test compounds for 72 hours followed by incubation with tetrazolium compound (3-(4,5-dimethylthiazol-2-yl)-5-(3-carboxymethoxyphenyl)-2-(4-sulfophenyl)-2H-tetrazolium, inner salt; MTS) and the electron coupling reagent, phenazine methosulfate (PMS) for 4 hours. […] The ability of compounds to inhibit cell growth in this assay is correlated with the reduction of dehydrogenase enzyme activity found in metabolically active cells. The measurement of the absorbance of the formazan was assessed using an ENVISION™ (Perkin Elmer) microplate reader at 492 nm. The calculated IC50 value is the concentration of the test compound that causes a 50% decrease in the absorbance.

NCI-H1299 = test: MTS assay, NCI-H1299 cells; format: cell-based; conditions: Homo sapiens, 72 hours
Method: as §1

ABL T315I = ABL T315I (Homo sapiens, UniProt P00519, T315I); test: ABL Kinase Activity Assay (Elisa), ABL T315I; format: biochemical; conditions: ATP 100 μM, read-out: Abl(T315I) Enzymetic assay (Elisa) % inhibition
Method: (§2) ABL Kinase Activity Assay
(§3) The disclosed compounds were assayed for their ability to inhibit the activity of ABL kinase. Nunc Maxisorb plates were coated with streptavidin by overnight incubation with 100 μL per well of 1 μg/ml streptavidin in DPBS. Prior to the experiment, the plates were washed with TBST (3×200 μL) and blocked for at least 3 hours by adding 150 μL of 5% BSA/TBST. The plates were washed with TBST (3×200 μL/well) and left dry immediately before the capture step.
(§4) The disclosed test compounds and controls (Gleevec) were prepared using the following assay buffer@10× desired final concentration (50 mM Tris pH 7.0, 0.02 mg/ml BSA, 10 mM MgCl2, 0.1 mM Na3VO4, 1 mM EGTA, 0.01% NP-40, 1 mM DTT in 10% glycerol/water). In a reaction plate, 5 μl test article (or control) and 30 μl ABL or ABL T315I (0.089 nM final concentration, in the above buffer) were added rapidly. The plate was incubated for 20 minutes. To the reaction plate was added ATP (100 μM final concentration) and AblTide (128 nM final concentration) in a volume of 15 μl. The plate was incubated at room temperature for one hour.
(§5) From the reaction plate, 40 μl was transferred to the streptavidin coated plate. The capture plate was incubated at room temperature for 30 minutes, then washed 3× with TBST. To the capture plate was added 100 μL/well of cell signaling anti-phospho tyrosine at a dilution of 1:3000 in 2% BSA/TBST. The plate was incubated for two hours at room temperature then washed 3× with TBST. To the capture plate was added 100 μL/well of alkaline phosphatase tagged goat anti mouse antibody at a dilution of 1:4000 in 2% BSA/TBST. The plate was incubated for one hour at room temperature then washed 3× with TBST.
(§6) The fluorescent readout was initiated by the addition of 100 μl/well of Attophos reagent (6 mg/10 mL). The reading was done on the Perkin Elmer Envision system.

ABL = ABL (Homo sapiens, UniProt P00519); test: ABL Kinase Activity Assay (Elisa), ABL; format: biochemical; conditions: ATP 100 μM, read-out: Abl Enzymetic assay (Elisa) % inhibition
Method: as §2, §3, §4, §5, §6

DLD-1 = test: MTS assay, DLD-1 cells; format: cell-based; conditions: Homo sapiens, 72 hours
Method: as §1

MDA-MB-231 = test: MTS assay, MDA-MB-231 cells; format: cell-based; conditions: Homo sapiens, 72 hours
Method: as §1

PACA-2 = test: MTS assay, PACA-2 cells; format: cell-based; conditions: 72 hours
Method: as §1

PC-3 = test: MTS assay, PC-3 cells; format: cell-based; conditions: Homo sapiens, 72 hours
Method: as §1

| SMILES | inhibition at 10 µM (KATO III) | inhibition at 10 µM (NCI-H1299) | inhibition at 10 µM (ABL T315I) | inhibition at 10 µM (ABL) | inhibition at 10 µM (DLD-1) | inhibition at 10 µM (MDA-MB-231) | inhibition at 10 µM (PACA-2) | inhibition at 10 µM (PC-3) |
| --- | --- | --- | --- | --- | --- | --- | --- | --- |
| Cc1cnc(CNc2ncc3c(n2)-c2cccnc2Nc2cnccc2-3)cn1 [Example 6, N-[(5-methylpyrazin-2-yl)methyl]-9H-dipyrido[2,3-b:4′,3′-f]pyrimido[4,5-d]azepin-2-amine] | < 50% | < 50% | < 50% | < 50% | – | – | – | – |
| Fc1ccc(CNc2ncc3c(n2)-c2cccnc2Nc2cnccc2-3)cc1Cl [Example 9, N-(3-chloro-4-fluorobenzyl)-9H-dipyrido[2,3-b:4′,3′-f]pyrimido[4,5-d]azepin-2-amine] | 50 to 79% | < 50% | 80 to 100% | 80 to 100% | 50 to 79% | < 50% | < 50% | – |
| c1ccc(CNc2ncc3c(n2)-c2cccnc2Nc2cnccc2-3)cc1 [Example 12, N-benzyl-9H-dipyrido[2,3-b:4′,3′-f]pyrimido[4,5-d]azepin-2-amine] | < 50% | < 50% | 80 to 100% | 80 to 100% | < 50% | < 50% | – | – |
| Cc1ccc(CCNc2ncc3c(n2)-c2cccnc2Nc2cnccc2-3)cc1 [Example 16, N-[2-(4-methylphenyl)ethyl]-9H-dipyrido[2,3-b:4′,3′-f]pyrimido[4,5-d]azepin-2-amine] | 50 to 79% | < 50% | 80 to 100% | 80 to 100% | < 50% | < 50% | < 50% | – |
| Fc1ccc(CCNc2ncc3c(n2)-c2cccnc2Nc2cnccc2-3)cc1 [Example 19, N-[2-(4-fluorophenyl)ethyl]-9H-dipyrido[2,3-b:4′,3′-f]pyrimido[4,5-d]azepin-2-amine] | < 50% | < 50% | 80 to 100% | 80 to 100% | < 50% | < 50% | – | – |
| Fc1ccccc1CNc1ncc2c(n1)-c1cccnc1Nc1cnccc1-2 [Example 20, N-(2-fluorobenzyl)-9H-dipyrido[2,3-b:4′,3′-f]pyrimido[4,5-d]azepin-2-amine] | < 50% | < 50% | 80 to 100% | 80 to 100% | < 50% | < 50% | < 50% | – |
| c1ccc(CCNc2ncc3c(n2)-c2cccnc2Nc2cnccc2-3)cc1 [Example 28, N-(2-phenylethyl)-9H-dipyrido[2,3-b:4′,3′-f]pyrimido[4,5-d]azepin-2-amine] | 50 to 79% | – | 80 to 100% | 80 to 100% | < 50% | < 50% | – | – |
| Clc1cccc(CCNc2ncc3c(n2)-c2cccnc2Nc2cnccc2-3)c1 [Example 29, N-[2-(3-chlorophenyl)ethyl]-9H-dipyrido[2,3-b:4′,3′-f]pyrimido[4,5-d]azepin-2-amine] | 80 to 100% | – | 80 to 100% | 80 to 100% | < 50% | < 50% | < 50% | – |
| FC(F)(F)c1cccc(CNc2ncc3c(n2)-c2cccnc2Nc2cnccc2-3)c1 [Example 30, N-[3-(trifluoromethyl)benzyl]-9H-dipyrido[2,3-b:4′,3′-f]pyrimido[4,5-d]azepin-2-amine] | 80 to 100% | < 50% | 80 to 100% | 80 to 100% | 50 to 79% | – | < 50% | – |
| Clc1ccc(CCNc2ncc3c(n2)-c2cccnc2Nc2cnccc2-3)cc1 [Example 31, N-[2-(4-chlorophenyl)ethyl]-9H-dipyrido[2,3-b:4′,3′-f]pyrimido[4,5-d]azepin-2-amine] | 80 to 100% | < 50% | 80 to 100% | 80 to 100% | 50 to 79% | – | < 50% | – |
| COc1cccc(CNc2ncc3c(n2)-c2cccnc2Nc2cnccc2-3)c1 [Example 32, N-(3-methoxybenzyl)-9H-dipyrido[2,3-b:4′,3′-f]pyrimido[4,5-d]azepin-2-amine] | < 50% | 50 to 79% | 80 to 100% | 80 to 100% | 50 to 79% | < 50% | < 50% | – |
| COc1cc(CNc2ncc3c(n2)-c2cccnc2Nc2cnccc2-3)cc(OC)c1 [Example 36, N-(3,5-dimethoxybenzyl)-9H-dipyrido[2,3-b:4′,3′-f]pyrimido[4,5-d]azepin-2-amine] | < 50% | < 50% | 80 to 100% | 50 to 79% | < 50% | – | < 50% | – |
| c1cnc2c(c1)-c1nc(NCCCN3CCCC3)ncc1-c1ccncc1N2 [Example 37, N-(3-pyrrolidin-1-ylpropyl)-9H-dipyrido[2,3-b:4′,3′-f]pyrimido[4,5-d]azepin-2-amine] | – | < 50% | – | 50 to 79% | – | < 50% | < 50% | – |
| Cc1cccc(CCNc2ncc3c(n2)-c2cccnc2Nc2cnccc2-3)c1 [Example 41, N-[2-(3-methylphenyl)ethyl]-9H-dipyrido[2,3-b:4′,3′-f]pyrimido[4,5-d]azepin-2-amine] | 50 to 79% | < 50% | 80 to 100% | 80 to 100% | < 50% | < 50% | < 50% | – |
| Fc1ccccc1CCNc1ncc2c(n1)-c1cccnc1Nc1cnccc1-2 [Example 43, N-[2-(2-fluorophenyl)ethyl]-9H-dipyrido[2,3-b:4′,3′-f]pyrimido[4,5-d]azepin-2-amine] | 50 to 79% | < 50% | 80 to 100% | 80 to 100% | < 50% | – | < 50% | – |
| CCN(CC)CCCNc1ncc2c(n1)-c1cccnc1Nc1cnccc1-2 [Example 44, N′-9H-dipyrido[2,3-b:4′,3′-f]pyrimido[4,5-d]azepin-2-yl-N,N-diethylpropane-1,3-diamine] | 80 to 100% | < 50% | – | < 50% | < 50% | < 50% | < 50% | – |
| COc1ccc(CNc2ncc3c(n2)-c2cccnc2Nc2cnccc2-3)cc1OC [Example 47, N-(3,4-dimethoxybenzyl)-9H-dipyrido[2,3-b:4′,3′-f]pyrimido[4,5-d]azepin-2-amine] | < 50% | 50 to 79% | 80 to 100% | 80 to 100% | 50 to 79% | < 50% | < 50% | – |
| Clc1cccc(CNc2ncc3c(n2)-c2cccnc2Nc2ccccc2-3)c1 [Example 61, N-(3-chlorobenzyl)-9H-pyrido[2,3-b]pyrimido[4,5-d][1]benzazepin-2-amine] | < 50% | < 50% | – | – | < 50% | < 50% | – | < 50% |
| OCCc1cccc(Nc2ncc3c(n2)-c2cccnc2Nc2ccccc2-3)c1 [Example 67, 2-[3-(9H-pyrido[2,3-b]pyrimido[4,5-d][1]benzazepin-2-ylamino)phenyl]ethanol] | 50 to 79% | 50 to 79% | – | – | < 50% | < 50% | 80 to 100% | – |

— patent publication US8349827B2, “Substituted dipyrido-pyrimido-diazepine and benzo-pyrido-pyrimido compounds” (ArQule, Inc., priority 2009, dated 2013)
